{"source": "BindingDB's records for doi:10.1021/jm991074s", "about": "(University of Catania, 2000)"}
{"target": "Cannabinoid receptor 2 (Homo sapiens, UniProt P34972)", "sequence (P34972 whole entry)": "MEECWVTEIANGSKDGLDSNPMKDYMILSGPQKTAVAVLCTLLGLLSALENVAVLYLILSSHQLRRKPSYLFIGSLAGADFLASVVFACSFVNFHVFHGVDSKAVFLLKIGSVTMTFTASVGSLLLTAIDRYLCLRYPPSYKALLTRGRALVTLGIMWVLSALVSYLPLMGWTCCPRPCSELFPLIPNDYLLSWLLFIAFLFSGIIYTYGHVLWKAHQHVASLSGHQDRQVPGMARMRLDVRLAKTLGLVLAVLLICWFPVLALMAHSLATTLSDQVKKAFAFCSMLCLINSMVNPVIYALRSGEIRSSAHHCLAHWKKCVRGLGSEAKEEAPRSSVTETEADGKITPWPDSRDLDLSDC", "assay": "Binding affinity towards cloned human cannabinoid receptor 2", "units": {"Ki": "nM"}}
{"smiles": "CCCCCn1c(C)c(C(=O)c2cccc3ccccc23)c2ccccc21", "note": "[JWH-007]", "Ki": 3}
{"smiles": "CCCCC/C=C\\C/C=C\\C/C=C\\C/C=C\\CCCC(=O)N1CCOCC1", "Ki": 540}
{"smiles": "CCCCC/C=C\\C/C=C\\C/C=C\\C/C=C\\CCCC(=O)NCCOC", "note": "[(5Z,8Z,11Z,14Z)-Icosa-5,8,11,14-tetraenoic acid (2-methoxy-ethyl)-amide]", "Ki": 450}
{"smiles": "CC1=CCC2C(C1)c1c(O)cc(CCCCCF)cc1OC2(C)C", "note": "(stereo not given)", "Ki": 8.7}
{"smiles": "CCCCC/C=C\\C/C=C\\C/C=C\\C/C=C\\CCC(C)C(=O)NCCF", "note": "(stereo not given) [2-Methyl-icosa-5,8,11,14-tetraenoic acid (2-fluoro-ethyl)-amide (0689)]", "Ki": 130}
{"smiles": "CC1=CCC2C(C1)c1c(O)cc(CCCCC(F)(F)F)cc1OC2(C)C", "note": "(stereo not given)", "Ki": 30}
{"smiles": "CCCCC/C=C\\C/C=C\\C/C=C\\C/C=C\\CCC(C(=O)NCCO)C(C)C", "note": "(stereo not given)", "Ki": 5100}
{"smiles": "CCCCC/C=C\\C/C=C\\C/C=C\\C/C=C\\CCCC(=O)NCCF", "note": "[(5Z,8Z,11Z,14Z)-Icosa-5,8,11,14-tetraenoic acid (2-fluoro-ethyl)-amide]", "Ki": 320}
{"smiles": "CCCCCn1ccc(C(=O)c2cccc3ccccc23)c1", "Ki": 320}
{"smiles": "CCCCCc1cc(O)c2c(c1)OC(C)(C)c1ccc(C)cc1-2", "note": "[6,6,9-Trimethyl-3-pentyl-6H-benzo[c]chromen-1-ol(Cannabinol)]", "Ki": 95}
